From patent US20260364088A1, “TASL MIMICKING MOLECULES AND APPLICATIONS THEREOF” (CEMM - FORSCHUNGSZENTRUM FÜR MOLEKULARE MEDIZIN GMBH, priority 2022, published 2026)
pIC50: −log10 of the molar value. Read-outs that look alike come from different tables or passages of the source.

Columns and labels:
Format in all cases: cell-based
THP1 dual cell = biological target: T1, THP1 dual cell (Homo sapiens, UniProt Q8N697); assay: THP1 DUAL/ISRE cell reporter assay (R848 stimulated)
T1 construct: R848 (TLR7/8)-stimulated ISRE reporter
T1 sequence (Q8N697 whole entry): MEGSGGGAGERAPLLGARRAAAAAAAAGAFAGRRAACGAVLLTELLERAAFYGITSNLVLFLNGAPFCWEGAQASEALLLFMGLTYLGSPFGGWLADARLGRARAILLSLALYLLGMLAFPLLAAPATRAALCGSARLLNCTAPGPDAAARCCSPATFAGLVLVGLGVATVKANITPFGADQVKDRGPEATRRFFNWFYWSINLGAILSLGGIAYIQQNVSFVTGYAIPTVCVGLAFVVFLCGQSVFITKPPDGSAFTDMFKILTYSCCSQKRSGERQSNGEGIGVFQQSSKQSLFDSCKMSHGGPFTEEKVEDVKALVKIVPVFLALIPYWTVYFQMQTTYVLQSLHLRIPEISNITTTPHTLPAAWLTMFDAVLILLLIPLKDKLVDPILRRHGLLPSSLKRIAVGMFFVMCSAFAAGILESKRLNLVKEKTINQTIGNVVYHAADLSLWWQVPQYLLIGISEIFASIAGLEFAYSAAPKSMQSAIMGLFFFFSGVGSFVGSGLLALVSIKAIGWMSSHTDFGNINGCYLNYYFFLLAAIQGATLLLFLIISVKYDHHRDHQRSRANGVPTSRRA
Method: CAL-1, THP1 or human primary cells were incubated with dTASL1 and other identified compounds (or the corresponding volume of DMSO vehicle) for 24 h or 48 h at the indicated concentration and subsequently stimulated with R848 (5 μg/ml) for the indicated time. Supernatant or cells were recovered for ELISA, SDS-PAGE or microscopy-based analysis.
THP1 DUAL cells (1×10^5 cells per 96 well) were incubated with compounds for 24 h or 48 h, and subsequently stimulated for 20 h as indicated. Cell culture supernatant were collected, cleared of residual cells by centrifugation and analyzed for NF-κB and ISRE reporter activity according to the manufacturer's instructions. For experiments in 384-well format, compounds were pre-plated at defined concentrations and THP1 dual cells were added at 800 k/well concentration in […]. After incubation for 24 h or 48 h cells were stimulated with […] of a 25 μg/ml stock of R848 or 0.5 μg/ml Pam3CKS4 5× stocks as indicated for 20 h and detected by directly adding Quanti-Luc Plus (Invivogen) solution to the plates, according to the manufacturer's instructions and without adding stabilizer solution. Quanti-Blue detection was carried out according to the manifacturers instructions, with QB reagent and buffer (Invivogen) dissolved in 30 ml water, instead of the 100 ml used for standard detection.
Based on potency and kinetics, the compound C5 was selected for further characterization (FIG. 2E). C5 is an elongated molecule comprised of an aromatic 2-(4-ethoxyphenyl)-quinoline moiety followed by an amide bond and an aliphatic 2-methyl-1-propylpiperidine (FIG. 2F). To validate the scaffold and explore the chemical space at the aliphatic end of the compound, five analogues and an independently synthesized batch of C5 were obtained. […] Therefore the C5 compound was selected, which was named dTASL1 as its activity leads to TASL degradation, to assess effects on TLR7/8-induced signaling and responses.
The following compounds were assayed for their activity in the degradation assay (THP1 DUAL/ISRE cell reporter assay), as described herein: […]

TASL-SLC15A4 complex = TASL-SLC15A4 complex (Homo sapiens, UniProt Q8N697); assay: PM-associated TASL levels in cells coexpressing ΔN-SLC15A4 and TASL-GFP; details: 10 µM, 24 h
Sequence of TASL-SLC15A4 complex (Q8N697 whole entry, one chain of several): as the sequence (Q8N697 whole entry) above
Method: For live cell imaging cells were plated in PhenoPlate 96-well plates or Ibidi m-Slide 8 (Ibidi) wells at 16 k/well and incubated over-night. Then compounds were added, if indicated, and cells were imaged after 24 h of incubation. Cells were stained with LysoTracker Deep Red L12492 (ThermoFisher) and Hoechst 34580 (ThermoFisher). PhenoPlate images were acquired on an Opera Phenix Plus High-Content Screening System (PerkinElmer) and m-Slide images were acquired on a confocal laser scanning microscope (Zeiss LSM980, Carl Zeiss) equipped with an incubation chamber. Images were analyzed with Fiji-ImageJ.
Encouraged by the fact that the chemical entity of the present invention was showing the desired behavior and specificity profile, it became important to better clarify the molecular basis of this uncommon mechanism of action, i.e interference with a highly specific protein interaction leading to degradation of a single complex component. The effect of dTASL1 on complex assembly was first monitored. […] While total levels of SLC15A4-GFP were unaltered, localization appears to reflect some lysosomal rearrangement. […] To further rule out the residual possibility of an indirect effect, possibly related to TASL maturation or transport, dTASL1 competition assays with GFP-SLC15A4 associated with short N-terminal portions of TASL protein were performed. […]

TASL-GFP (Homo sapiens) = assay: TASL-GFP levels in HEK293T cells co-expressing SLC15A4 (flow cytometry, microscopy); details: HEK293T co-expressing SLC15A4, 10 µM, 24 h
Sequence of TASL-GFP (Homo sapiens) (Q8N697 whole entry): as above
Method: (§1) Cells transfected with TASL-V5 plasmid were stained for V5-tag and detected with deep red Alexa Fluor 647 secondary antibody to allow for selection in the presence of an mCherry reporter. Cells were measured either immediately after staining or in the case of live cells immediately after harvesting and washing with PBS. Data were acquired on a BD FACSCalibur (BD Biosciences) and analyzed with FlowJo software (version 10).
(§2) For live cell imaging cells were plated in PhenoPlate 96-well plates or Ibidi m-Slide 8 (Ibidi) wells at 16 k/well and incubated over-night. Then compounds were added, if indicated, and cells were imaged after 24 h of incubation. Cells were stained with LysoTracker Deep Red L12492 (ThermoFisher) and Hoechst 34580 (ThermoFisher). […] Images were analyzed with Fiji-ImageJ.
(§3) Encouraged by the fact that the chemical entity of the present invention was showing the desired behavior and specificity profile, it became important to better clarify the molecular basis of this uncommon mechanism of action, i.e interference with a highly specific protein interaction leading to degradation of a single complex component. The effect of dTASL1 on complex assembly was first monitored. […]

TASL-GFP = TASL-GFP (Homo sapiens, UniProt Q8N697); assay: as above; details: HEK293T co-expressing SLC15A4, 10 µM, 24 h
Sequence of TASL-GFP (Q8N697 whole entry): as above
Method: as §1, §2, §3

SLC15A4 = biological target: T2, SLC15A4 (Homo sapiens, UniProt Q8N697); assay: Competition assay with V5-tagged N-terminal TASL fragments (V5 immunofluorescence); details: TASL-V5 fragments of first 94 and 193 amino acids; 10 mM dTASL1, 24 h
T2 construct: transient TASL-V5 N-terminal fragments 1-94 and 1-193 (C-terminal V5) as partner
T2 sequence (Q8N697 whole entry, the tested form may be a part): as the sequence (Q8N697 whole entry) above
Method: For staining of fixed cells, 12 k cells/well were seeded in tissue culture-treated PhenoPlate 96-well plates (PerkinElmer) and incubated over-night. Cells were transfected with TASL-V5 fragments the next day and subsequently TASL-V5 expression was induced by addition of 1 μg/ml doxycycline and […] dTASL1 or an equivalent volume of DMSO respectively. Compound and doxycycline were added at the same time, to allow dTASL1 to occupy SLC15A4 binding sites in advance of TASL binding. Cells were fixed after 24 h of incubation for 10 min with 4% formaldehyde in PBS and permeabilized and blocked with 0.2% Triton X-100 (Sigma) and 5% FBS in PBS for 1 h. Cells were stained overnight at 4 °C with a mouse anti V5 primary antibody (Invitrogen) in blocking solution. Cells were washed 3 time in PBS and stained for 1.5 h with fluorescently labelled goat anti mouse Alexa-568 (Invitrogen) secondary antibody. […]
as §3

pIC50 (THP1 dual cell; 24 h treatment before R848 stimulation, read-out: IC50 24 h): 5.65
pIC50 (THP1 dual cell; 48 h treatment before R848 stimulation, read-out: IC50 48 h): 6.03
TASL-GFP levels (TASL-GFP (Homo sapiens)): reduced TASL-GFP levels
Structure (SMILES): CCOc1ccc(-c2cc(C(=O)NCCCN3CCCCC3C)c3ccccc3n2)cc1 (stereo not drawn) [dTASL1, 2-(4-ethoxyphenyl)-N-(3-(2-methylpiperidin-1-yl)propyl) quinoline-4-carboxamide]
PM-associated TASL levels (TASL-SLC15A4 complex): severely reduced PM-associated TASL levels
TASL-GFP levels and localization by microscopy (TASL-GFP): a reduction of TASL-GFP levels accompanied by relocalisation
SLC15A4-localized V5 signal (SLC15A4): reduce SLC15A4-localized V5 signal for both short TASL portions
